# Experiments:
# [1] = tested on: participants with migraine (qualifying prodrome events); assay: Phase 3 crossover study: satisfaction with study medication; type: in vivo, human; settings: 100 mg in prodrome
# Method: (§1) A phase 3, multicenter, randomized, double-blind, placebo-controlled, crossover study was carried out to evaluate the efficacy, safety, and tolerability of oral ubrogepant in the acute treatment of migraine when administered during the prodrome. The study evaluated whether treatment during the initial phase of a migraine attack (i.e., the prodrome or premonitory phase) prior to the onset of headache, can attenuate the severity of the headache phase and reduce disability.
# (§2) Eligible participants were randomized (1:1) to treatment sequences A or B in this crossover study. Participants randomized to Treatment Sequence A received placebo to treat their first qualifying prodrome event and ubrogepant 100 mg to treat their second qualifying prodrome event. For those randomized to Treatment Sequence B, they received the reverse: ubrogepant 100 mg to treat their first qualifying prodrome event and placebo to treat their second qualifying prodrome event.
# [2] = tested on: participants with migraine (qualifying prodrome events); assay: Phase 3 crossover study: absence of prodrome symptoms over time; type: in vivo, human; settings: 100 mg in prodrome; for Absence of dizziness, Nonresponder (%) / Absence of dizziness, Odds ratio vs. placebo / Absence of dizziness, Responder (%) / Absence of fatigue, Nonresponder (%) / Absence of fatigue, Odds ratio vs. placebo / Absence of fatigue, Responder (%) / Absence of neck pain, Nonresponder (%) / Absence of neck pain, Odds ratio vs. placebo / Absence of neck pain, Responder (%) / Absence of sensitivity to light, Nonresponder (%) / Absence of sensitivity to light, Odds ratio vs. placebo / Absence of sensitivity to light, Responder (%) / Absence of sensitivity to sound, Nonresponder (%) / Absence of sensitivity to sound, Odds ratio vs. placebo / Absence of sensitivity to sound, Responder (%): participants with symptom at predose
# Method: as §1, §2
# N1 is the number of participants with the prodrome symptom at predose. N2 is the number of participants with non-missing prodrome symptom intensity assessment by timepoint after dose. The proportion of events with absence of sensitivity to light after ubrogepant 100 mg was numerically greater than after placebo, starting at 2 hours post-dose and extending through 48 hours (nominal P≤0.0109 for hours 2-8).
# N1 is the number of participants with the prodrome symptom at predose. N2 is the number of participants with non-missing prodrome symptom intensity assessment by timepoint after dose. The difference in response rates was nominally significant for the ubrogepant 100 mg dose group compared with placebo as early as 3 hours post-dose administered during the prodrome.
# N1 is the number of participants with the prodrome symptom at predose. N2 is the number of participants with non-missing prodrome symptom intensity assessment by timepoint after dose.
smiles,measurement,setting,value
"C[C@@H]1[C@H](c2ccccc2)C[C@H](NC(=O)c2cnc3c(c2)C[C@@]2(C3)C(=O)Nc3ncccc32)C(=O)N1CC(F)(F)F [Ubrogepant, (3′S)—N-((3S,5S,6R)-6-methyl-2-oxo-5-phenyl-1-(2,2,2-trifluoroethyl)piperidin-3-yl)-2′-oxo-1′,2′,5,7-tetrahydrospiro[cyclopenta[b]pyridine-6,3′-pyrrolo[2,3-b]pyridine]-3-carboxamide]","Satisfaction with study medication, Odds ratio vs placebo",[1]; 8 Hours post-dose,2.37
same,"Satisfaction with study medication, responder rate (%) (satisfied or extremely satisfied)",[1]; 8 Hours post-dose,(66.0) %
same,"Satisfaction with study medication, Odds ratio vs placebo",[1]; 24 Hours post-dose,2.32
same,"Satisfaction with study medication, responder rate (%) (satisfied or extremely satisfied)",[1]; 24 Hours post-dose,(65.6) %
same,"Satisfaction with study medication, responder rate (%) (satisfied or extremely satisfied)","[1]; 24 Hours post-dose, listed as ubrogepant",65.6%
same,"Response rates vs placebo, absence of dizziness",[2],Numerically higher response rates
same,"Response rates vs placebo, absence of sensitivity to sound",[2],Numerically higher response rates
same,"Absence of dizziness, Nonresponder (%)",[2]; 1 Hour post dose,(90.0) %
same,"Absence of dizziness, Odds ratio vs. placebo",[2]; 1 Hour post dose,0.96
same,"Absence of dizziness, Responder (%)",[2]; 1 Hour post dose,(10.0) %
same,"Absence of fatigue, Nonresponder (%)",[2]; 1 Hour post dose,(95.1) %
same,"Absence of fatigue, Odds ratio vs. placebo",[2]; 1 Hour post dose,1.23
same,"Absence of fatigue, Responder (%)",[2]; 1 Hour post dose,(4.9) %
same,"Absence of neck pain, Nonresponder (%)",[2]; 1 Hour post dose,(95.8) %
same,"Absence of neck pain, Odds ratio vs. placebo",[2]; 1 Hour post dose,1.43
same,"Absence of neck pain, Responder (%)",[2]; 1 Hour post dose,(4.2) %
same,"Absence of sensitivity to light, Nonresponder (%)",[2]; 1 Hour post dose,(95.2) %
same,"Absence of sensitivity to light, Odds ratio vs. placebo",[2]; 1 Hour post dose,1.08
same,"Absence of sensitivity to light, Responder (%)",[2]; 1 Hour post dose,(4.8) %
same,"Absence of sensitivity to sound, Nonresponder (%)",[2]; 1 Hour post dose,(92.0) %
same,"Absence of sensitivity to sound, Odds ratio vs. placebo",[2]; 1 Hour post dose,1.23
same,"Absence of sensitivity to sound, Responder (%)",[2]; 1 Hour post dose,(8.0) %
same,"Absence of dizziness, Nonresponder (%)",[2]; 2 Hours post dose,(70.7) %
same,"Absence of dizziness, Odds ratio vs. placebo",[2]; 2 Hours post dose,1.17
same,"Absence of dizziness, Responder (%)",[2]; 2 Hours post dose,(29.3) %
same,"Absence of fatigue, Nonresponder (%)",[2]; 2 Hours post dose,(81.6) %
same,"Absence of fatigue, Odds ratio vs. placebo",[2]; 2 Hours post dose,1.43
same,"Absence of fatigue, Responder (%)",[2]; 2 Hours post dose,(18.4) %
same,"Absence of neck pain, Nonresponder (%)",[2]; 2 Hours post dose,(84.6) %
same,"Absence of neck pain, Odds ratio vs. placebo",[2]; 2 Hours post dose,1.39
same,"Absence of neck pain, Responder (%)",[2]; 2 Hours post dose,(15.4) %
same,"Absence of sensitivity to light, Nonresponder (%)",[2]; 2 Hours post dose,(80.5) %
same,"Absence of sensitivity to light, Odds ratio vs. placebo",[2]; 2 Hours post dose,1.72
same,"Absence of sensitivity to light, Responder (%)",[2]; 2 Hours post dose,(19.5) %
same,"Absence of sensitivity to sound, Nonresponder (%)",[2]; 2 Hours post dose,(74.7) %
same,"Absence of sensitivity to sound, Odds ratio vs. placebo",[2]; 2 Hours post dose,1.59
same,"Absence of sensitivity to sound, Responder (%)",[2]; 2 Hours post dose,(25.3) %
same,"Absence of dizziness, Nonresponder (%)",[2]; 3 Hours post dose,(60.7) %
same,"Absence of dizziness, Odds ratio vs. placebo",[2]; 3 Hours post dose,1.60
same,"Absence of dizziness, Responder (%)",[2]; 3 Hours post dose,(39.3) %
same,"Absence of fatigue, Nonresponder (%)",[2]; 3 Hours post dose,(72.7) %
same,"Absence of fatigue, Odds ratio vs. placebo",[2]; 3 Hours post dose,1.85
same,"Absence of fatigue, Responder (%)",[2]; 3 Hours post dose,(27.3) %
same,"Absence of neck pain, Nonresponder (%)",[2]; 3 Hours post dose,(71.1) %
same,"Absence of neck pain, Odds ratio vs. placebo",[2]; 3 Hours post dose,2.04
same,"Absence of neck pain, Responder (%)",[2]; 3 Hours post dose,(28.9) %
same,"Absence of sensitivity to light, Nonresponder (%)",[2]; 3 Hours post dose,(67.6) %
same,"Absence of sensitivity to light, Odds ratio vs. placebo",[2]; 3 Hours post dose,1.58
same,"Absence of sensitivity to light, Responder (%)",[2]; 3 Hours post dose,(32.4) %
same,"Absence of sensitivity to sound, Nonresponder (%)",[2]; 3 Hours post dose,(64.4) %
same,"Absence of sensitivity to sound, Odds ratio vs. placebo",[2]; 3 Hours post dose,1.45
same,"Absence of sensitivity to sound, Responder (%)",[2]; 3 Hours post dose,(35.6) %
same,"Absence of dizziness, Nonresponder (%)",[2]; 4 Hours post dose,(50.0%
same,"Absence of dizziness, Odds ratio vs. placebo",[2]; 4 Hours post dose,1.37
same,"Absence of dizziness, Responder (%)",[2]; 4 Hours post dose,(50.0) %
same,"Absence of fatigue, Nonresponder (%)",[2]; 4 Hours post dose,(65.2) %
same,"Absence of fatigue, Odds ratio vs. placebo",[2]; 4 Hours post dose,1.93
same,"Absence of fatigue, Responder (%)",[2]; 4 Hours post dose,(34.8) %
same,"Absence of neck pain, Nonresponder (%)",[2]; 4 Hours post dose,(61.3) %
same,"Absence of neck pain, Odds ratio vs. placebo",[2]; 4 Hours post dose,2.27
same,"Absence of neck pain, Responder (%)",[2]; 4 Hours post dose,(38.7) %
same,"Absence of sensitivity to light, Nonresponder (%)",[2]; 4 Hours post dose,(55.2) %
same,"Absence of sensitivity to light, Odds ratio vs. placebo",[2]; 4 Hours post dose,1.46
same,"Absence of sensitivity to light, Responder (%)",[2]; 4 Hours post dose,(44.8) %
same,"Absence of sensitivity to sound, Nonresponder (%)",[2]; 4 Hours post dose,(49.3) %

# — patent publication US20260130901A1, “CGRP RECEPTOR ANTAGONIST FOR THE TREATMENT OF MIGRAINE” (ALLERGAN PHARMACEUTICALS INTERNATIONAL LIMITED, priority 2022, published 2026)
